# In ChEMBL document CHEMBL5154722, “Identification of new potent anticancer derivatives through simplifying the core structure and modification on their 14- hydroxyl group from oridonin” (Eur J Med Chem, 2022):
# Activity calls are given as the source filed them. No cut-off for these calls is given here.
# How the values were obtained:
# [1] = tested on: K562; experiment: Induction of apoptosis in human K562 cells assessed as increase in caspase-9 level measured after 48 hrs by Western blot analysis; assay type: functional, cell-based; conditions: dose 25-100 nM, DDE = dose-dependent effect
# [2] = tested on: K562; experiment: Disruption of mitochondria in human K562 cells assessed as reduction of mitochondrial membrane potential measured after 48 hrs by JC-1 probe based fluorescence based assay; assay type: functional, cell-based; conditions: dose 25-100 nM, DDE = dose-dependent effect
# [3] = tested on: K562; experiment: Induction of apoptosis in human K562 cells assessed as viable cells at 50 nM measured after 48 hrs by Annexin V-FITC/PI staining based flow cytometry method (reference value: 94.41%); assay type: functional; conditions: read-out: Activity
# [4] = tested on: K562; experiment: Induction of apoptosis in human K562 cells assessed as viable cells at 100 nM measured after 48 hrs by Annexin V-FITC/PI staining based flow cytometry method (reference value: 94.41%); assay type: functional; conditions: read-out: Activity
# [5] = tested on: K562; experiment: Induction of apoptosis in human K562 cells assessed as viable cells at 25 nM measured after 48 hrs by Annexin V-FITC/PI staining based flow cytometry method (reference value: 94.41%); assay type: functional; conditions: read-out: Activity
# [6] = tested on: SW480; experiment: Antiproliferative activity against human SW480 cells assessed as reduction in cell viability incubated for 72 hrs by MTT assay; assay type: functional, cell-based; conditions: SW480, 72 h
# [7] = tested on: K562; experiment: Induction of cell cycle arrest in human K562 cells assessed as accumulation of cells at G2 phase at 100 nM measured after 48 hrs by propidium iodide staining-based flow cytometric analysis (reference value: 15.30%); assay type: functional
# [8] = tested on: K562; experiment: Induction of cell cycle arrest in human K562 cells assessed as accumulation of cells at G1 phase at 25 nM measured after 48 hrs by propidium iodide staining-based flow cytometric analysis (reference value: 47.40%); assay type: functional
# [9] = Toxicity in ICR mouse allografted with mouse H22 cells assessed as effect on liver morphology at 10 to 20 mg/kg, iv administered once a day for 21 days after 7 days of tumor implantation by H and E staining method; assay type: organism-based; conditions: in vivo, 504 h, dose 10-20 mg/kg, time 21 day
# [10] = Selectivity index, ratio of IC50 for human L02 cells to IC50 for human SMMC-7721 cells; assay type: toxicity; conditions: L02 cells and SMMC-7721 cells, read-out: Ratio IC50
# [11] = Toxicity in ICR mouse allografted with mouse H22 cells assessed as effect on kidney morphology at 10 to 20 mg/kg, iv administered once a day for 21 days after 7 days of tumor implantation by H and E staining method; assay type: organism-based; conditions: in vivo, 504 h, dose 10-20 mg/kg, time 21 day
# [12] = tested on: K562; experiment: Induction of cell cycle arrest in human K562 cells assessed as accumulation of cells at S phase at 50 nM measured after 48 hrs by propidium iodide staining-based flow cytometric analysis (reference value: 37.29%); assay type: functional
# [13] = tested on: K562; experiment: Induction of cell cycle arrest in human K562 cells assessed as downregulation of cdc2 measured after 48 hrs by Western blot analysis; assay type: functional, cell-based; conditions: dose 25-100 nM, DDE = dose-dependent effect
# [14] = tested on: K562; experiment: Inhibition of MAPK signaling pathway in human K562 cells assessed as reduction in Raf level measured after 48 hrs by Western blot analysis; assay type: cell-based; conditions: dose 25-100 nM, DDE = dose-dependent effect
# [15] = tested on: HeLa; experiment: Antiproliferative activity against human HeLa cells assessed as reduction in cell viability incubated for 72 hrs by MTT assay; assay type: functional, cell-based
# [16] = tested on: H22; experiment: Antitumor activity against mouse H22 cells allografted in ICR mouse assessed as reduction in tumor weight at 10 mg/kg, iv administered once a day for 21 days after 7 days of tumor implantation; assay type: functional; parameters: scale not given: the % may be the effect or the level left; conditions: time 21 day
# [17] = tested on: K562; experiment: Induction of cell cycle arrest in human K562 cells assessed as accumulation of cells at G2 phase at 50 nM measured after 48 hrs by propidium iodide staining-based flow cytometric analysis (reference value: 15.30%); assay type: functional
# [18] = tested on: K562; experiment: Induction of apoptosis in human K562 cells assessed as late apoptotic cells at 25 nM measured after 48 hrs by Annexin V-FITC/PI staining based flow cytometry method (reference value: 3.53%); assay type: functional
# [19] = tested on: SMMC-7721; experiment: Antiproliferative activity against human […] cells assessed as reduction in cell viability incubated for 72 hrs by MTT assay; assay type: functional, cell-based; conditions: SMMC-7721, 72 h
# [20] = tested on: K562; experiment: Induction of apoptosis in human K562 cells assessed as necrotic cells at 25 nM measured after 48 hrs by Annexin V-FITC/PI staining based flow cytometry method (reference value: 0.44%); assay type: functional
# [21] = tested on: K562; experiment: Induction of apoptosis in human K562 cells assessed as increase in Bax/Bcl-2 ratio at 25 to 100 nM measured after 48 hrs by Western blot analysis; assay type: functional, cell-based; conditions: dose 25-100 nM
# [22] = tested on: K562; experiment: Induction of cell cycle arrest in human K562 cells assessed as accumulation of cells at G1 phase at 50 nM measured after 48 hrs by propidium iodide staining-based flow cytometric analysis (reference value: 47.40%); assay type: functional
# [23] = tested on: K562; experiment: Induction of apoptosis in human K562 cells assessed as intracellular ROS generation at 100 uM measured after 48 hrs by DCFH-DA staining based flow cytometry method (reference value: 0.41%); assay type: functional
# [24] = Toxicity in ICR mouse allografted with mouse H22 cells assessed as change in body weight at 10 to 20 mg/kg, iv administered once a day for 21 days after 7 days of tumor implantation measured every two days; assay type: organism-based; conditions: in vivo, 504 h, dose 10-20 mg/kg, time 21 day
# [25] = tested on: K562; experiment: Induction of cell cycle arrest in human K562 cells assessed as accumulation of cells at S phase at 100 nM measured after 48 hrs by propidium iodide staining-based flow cytometric analysis (reference value: 37.29%); assay type: functional
# [26] = tested on: H22; experiment: Antitumor activity against mouse H22 cells allografted in ICR mouse assessed as reduction in tumor weight at 20 mg/kg, iv administered once a day for 21 days after 7 days of tumor implantation; assay type: functional; parameters: scale not given: the % may be the effect or the level left; conditions: time 21 day
# [27] = tested on: H22; experiment: Antiproliferative activity against mouse H22 cells assessed as reduction in cell viability incubated for 72 hrs by MTT assay; assay type: functional, cell-based; conditions: H22, 72 h
# [28] = tested on: K562; experiment: Induction of apoptosis in human K562 cells assessed as reduction in phosphorylated mTOR level measured after 48 hrs by Western blot analysis; assay type: functional, cell-based; conditions: dose 25-100 nM, DDE = dose-dependent effect
# [29] = tested on: K562; experiment: Induction of apoptosis in human K562 cells assessed as early apoptotic cells at 50 nM measured after 48 hrs by Annexin V-FITC/PI staining based flow cytometry method (reference value: 1.62%); assay type: functional
# [30] = tested on: K562; experiment: Induction of apoptosis in human K562 cells assessed as reduction in phosphorylated PI3K level measured after 48 hrs by Western blot analysis; assay type: functional, cell-based; conditions: dose 25-100 nM, DDE = dose-dependent effect
# [31] = tested on: MGC-803; experiment: Antiproliferative activity against human MGC-803 cells assessed as reduction in cell viability incubated for 72 hrs by MTT assay; assay type: functional, cell-based; conditions: MGC-803, 72 h
# [32] = tested on: K562; experiment: Induction of apoptosis in human K562 cells assessed as increase in caspase-3 level measured after 48 hrs by Western blot analysis; assay type: functional, cell-based; conditions: dose 25-100 nM, DDE = dose-dependent effect
# [33] = tested on: K562; experiment: Induction of cell cycle arrest in human K562 cells assessed as downregulation of cyclin B1 measured after 48 hrs by Western blot analysis; assay type: functional, cell-based; conditions: dose 25-100 nM, DDE = dose-dependent effect
# [34] = tested on: K562; experiment: Induction of apoptosis in human K562 cells assessed as necrotic cells at 50 nM measured after 48 hrs by Annexin V-FITC/PI staining based flow cytometry method (reference value: 0.44%); assay type: functional
# [35] = tested on: K562; experiment: Antiproliferative activity against human K562 cells assessed as reduction in cell viability incubated for 72 hrs by MTT assay; assay type: functional, cell-based; conditions: K562, 72 h
smiles,measurement,setting,value
C=C1C(=O)[C@]23[C@H](OC(=O)/C=C/c4ccncc4)[C@H]1CC[C@H]2[C@]12CCCC(C)(C)[C@H]1[C@H](O)[C@@]3(O)OC2,Activity,[1],Dde
same,Activity,[2],Dde
same,viability at 0.05 µM,[3],66.7%
same,viability at 0.1 µM,[4],33%
same,viability at 0.025 µM,[5],82.5%
same,IC50,[6],1030 nM
same,Activity,[7],30.83%
same,Activity,[8],39.5%
same,Activity,[9],Non-Toxic
same,selectivity ratio,[10],7.12
same,Activity,[11],Non-Toxic
same,Activity,[12],36.52%
same,Activity,[13],Dde
same,Activity,[14],Dde
same,IC50,[15],1130 nM
same,Activity,[16],74.08%
same,Activity,[17],26.72%
same,Activity,[18],6.87%
same,IC50,[19],450 nM
same,Activity,[20],0.05%
same,Activity,[21],Active
same,Activity,[22],36.76%
same,Activity,[23],63.43%
same,Activity,[24],Non-Toxic
same,Activity,[25],35.31%
same,Activity,[26],78.92%
same,IC50,[27],230 nM
same,Activity,[28],Dde
same,Activity,[29],13.97%
same,Activity,[30],Dde
same,IC50,[31],610 nM
same,Activity,[32],Dde
same,Activity,[33],Dde
same,Activity,[34],0.07%
same,IC50,[35],90 nM
